Measurements: US20070275904A1, “CONJUGATES OF AZIRIDINYL-EPOTHILONE ANALOGS AND PHARMACEUTICAL COMPOSITIONS COMPRISING SAME” (BRISTOL-MYERS SQUIBB COMPANY, priority 2006, published 2007)
Like-named read-outs stand apart in the source and are kept apart here. Blank lines part the entries; values can stand above or below the compound they belong to.

Key:
[1] = test system: clonogenic KB cancer cells; assay: Clonogenic cell survival (colony formation) assay, KB cells; format: cell-based, human; conditions: FIG. 3; for fold by which compound G is more potent than the named compound (IC90): KB cells, 17 hours exposure
Protocol: Cancer cells were seeded at 3.0E+05 cells in a T75 flask with 10 ml of RPMI1640 media, free of folic acid, and containing 10% fetal bovine serum and 25 mM HEPES. Cells were grown in a 37° C. incubator containing 5% CO2 for 2 days. On day 2, supernatants were removed from the flasks, and the flasks were divided into 2 groups. One group of cells were incubated with 5 ml of media containing […] of folic acid (Sigma) for 30 minutes and the others were grown in 5 ml of media without added folic acid. Cells were then treated with 20 nM of epothilone, epothilone analog, conjugated epothilone, or conjugated epothilone analog for one hour. At the end of the incubation, the drugs were removed from the flasks and the cells were washed with PBS buffer 3×. After washing, 5 ml of complete media were added into each flask, and the cell was grown in the CO2 incubator for 23 hours. The next morning, the cells were removed from the flasks by trypsinization, cell numbers were determined, and then cells were plated in a 6 well plates. Ten days after plating, colonies were stained with crystal violet and counted. The surviving fractions were determined.
This is important because it is the aziridine epothilone analog, e.g., Compound G, that mediates the antitumor effects upon release from folic acid. […] The concentration needed to kill 90% of clonogenic KB cancer cells (IC90) was determined after a drug exposure duration of 17 hours.

[2] = test system: A2780 ovarian carcinoma cell line; assay: cells; format: cell-based, human; conditions: read-out: A2780 IC5
Protocol: (§1) In vitro cytotoxicity was assessed in tumor cells using a tetrazolium-based colorimetric assay which takes advantage of the metabolic conversion of MTS (3-(4,5-dimethylthiazol-2-yl)-5-(3-carboxymethoxyphenyl)-2-([…])-2H-tetrazolium, inner salt) to a reduced form that absorbs light at 492 nm. Cells were seeded 24 hr prior to addition of the epothilone, epothilone analog, conjugated epothilone, or conjugated epothilone analog. Following a 72 hour incubation at 37° C. with serially diluted compound, MTS, in combination with the electron coupling agent phenazine methosulfate, was added to the cells. The incubation was continued for 3 hours, then the absorbancy of the medium at 492 nm was measured with a spectrophotometer to obtain the number of surviving cells relative to control populations. The results are expressed as median cytotoxic concentrations (IC50 values).
(§2) Other epothilone analogs, e.g., aziridinyl epothilones, are known in the art (see, e.g., U.S. Pat. No. 6,399,638; Regueiro-Ren, A, et al. (2001) Org. Letters. 3:2693-96) and show potent antitumor cytotoxicity. For example, an MTS assay that compared the relative cytotoxic potency of a number of epothilone analogs against a pair of taxane-resistant cancer cell lines (HCTVM46 and […]) was conducted (see Table 1). HCTVM46 is a human colon carcinoma cell line derived from the sensitive HCT116 parent line, and is resistant to taxanes due to overexpression of the 170 kD p-glyprotein drug efflux transporter. A2780Tax is a human ovarian carcinoma cell line derived from the parent A2780 line, and is resistant to paclitaxel as a result of a mutation in the tubulin amino acid sequence that impairs the ability of paclitaxel to bind.
(§3) As is shown in Table 1, various aziridinyl epothilone analogs (Compounds CC-EE) show potent antitumor activity against both the HCT116 colon and A2780 ovarian carcinoma cell lines, compared to other known antitumor agents, e.g., paclitaxel, compound AA, and epothilone B.

[3] = test system: HCT116 colon carcinoma cell line; assay: cells; format: cell-based, human; conditions: read-out: HCT116 IC50
Protocol: as §1, §2, §3

[4] = test system: HCT116VM46 (HCTVM46) human colon carcinoma cell line; format: cell-based; conditions: R/S ratio = HCT116 IC50/HCT116VM46IC50 as printed
Protocol: as §1, §2

[5] = test system: A2780Tax human ovarian carcinoma cell line; assay: In vitro MTS assay, paclitaxel-resistant A2780Tax versus A2780; format: cell-based
Protocol: as §1, §2

Phase II clinical trials = conditions: in vivo
[6] = FRα(−) M109 parent tumor model in mice; format: in vivo; conditions: female, CD2F1, mouse, in vivo, M109 model, IV, read-out: maximum tolerated dose (MTD)
Description: (§4) Female CD2F1 mice (Harlan Sprague-Dawley Inc., 20-22 g) maintained in a controlled environment and provided with water and food ad libitum were used in these studies. The murine FRα(−) Madison 109 (M109) lung carcinoma (Marks et al., 1977) and the FR-expressing (FRα(+)) 98M109 variant were used to evaluate the efficacy of the epothilone, epothilone analog (e.g., epothilone derivative), folate-epothilone conjugate, or folate-epothilone analog conjugate. In addition, the human head and neck epidermoid carcinoma KB grown in nude mice was also used for this purpose.
(§5) For administration of epothilones or epothilone analogs to mice, an excipient consisting of the following was used: CREMOPHOR®/ethanol/water (1:1:8, v/v). The compounds were first dissolved in a mixture of CREMOPHOR®/ethanol (50:50). Final dilution to the required dosage strength was made less than 1 hr before drug administration. Mice were administered the agents by bolus IV injection through the tail vein. Folate-epothilone conjugates or folate-epothilone analog conjugates were prepared in sterile phosphate buffered saline and administered to mice by IV bolus injection through the tail vein at a volume of 0.01 mL/g of mice. Treatment of each animal was based on individual body weight.
(§6) The required number of animals needed to detect a meaningful response were pooled at the start of the experiment and each was given a subcutaneous inoculation of a tumor brei (2% w/v). Tumors were allowed to grow for 4 days. On the fourth day, animals were evenly distributed to various treatment and control groups. Treated animals were checked daily for treatment related toxicity/mortality. Each group of animals was weighed before the initiation of treatment (Wt1) and then again following the last treatment dose (Wt2). The difference in body weight (Wt2−Wt1) provides a measure of treatment-related toxicity.
(§7) Tumor response was determined by measurement of tumors with a caliper twice a week, until the tumors reached a predetermined “target” size of 1 gm. Tumor weights (mg) were estimated from the formula: Tumor weight=(length×width^2)÷2
(§8) Antitumor activity was evaluated at the maximum tolerated dose (MTD) which is defined as the dose level immediately […] which excessive toxicity (i.e. more than one death) occurred. When death occurred, the day of death was recorded. […]
(§9) To estimate tumor cell kill, the tumor volume doubling time (TVDT) was first calculated with the formula: TVDT=Median time (days) for control tumors to reach target size−Median time (days) for control tumors to reach half the target size And, Log cell kill=T−C÷(3.32×TVDT) Statistical evaluations of data were performed using Gehan's generalized Wilcoxon test.

[7] = test system: FRα(−) M109 murine lung carcinoma; assay: FRα(−) M109 parent tumor model in mice; format: in vivo; conditions: IV bolus, FIG. 5
Description: as §4, §5, §6, §7, §8, §9

FRα(+) 98M109 tumors = assay: FRα(+) 98M109 tumor model, competition with a folate analog; format: in vivo, mice; conditions: folate analog at 20-fold excess of the dose of compound J; FIG. 6
Description: as §4, with “purpose. […]” for “purpose.”
(§10) Tumor response was determined by measurement of tumors with a caliper twice a week, until the tumors reached a predetermined “target” size of 1 gm. […]
as §8, §9

[8] = target: T1, FR expressed on KB tumor cells (Homo sapiens, UniProt P15328); assay: Displacement of radiolabeled folic acid from FR on KB tumor cells; format: binding; conditions: compared to folic acid, RA of folic acid=1.0
T1 construct: FR expressed on KB tumor cells grown to confluence; endogenous in cells; host or cells: KB tumor cells
Protocol: The binding of folate conjugates of Compound AA to FR was determined in an assay that measures displacement of radiolabeled folic acid from FR expressed on KB tumor cells grown to confluence.

[9] = test system: KB nasopharyngeal epidermoid carcinoma xenografts; assay: KB in vivo FRα(+) tumor model, xenografts in nude mice; conditions: FIG. 4
Description: as §4
as §5, with “weight. […]” for “weight.”
as §10, §8, §9

[10] = as above; conditions: mouse, in vivo; KB model, nude mice, IV; read-out: maximum tolerated dose (MTD)
Description: as §4
as §5, with “weight. […]” for “weight.”
as §10, §8, §9

[11] = Homo sapiens, HCT-116, Mean IC50 ± SD from four separate experiments, MTS, 72 hour incubation
[12] = Mean IC50 ± SD from four separate experiments, MTS, 72 hour incubation

T1 sequence (P15328 25-234): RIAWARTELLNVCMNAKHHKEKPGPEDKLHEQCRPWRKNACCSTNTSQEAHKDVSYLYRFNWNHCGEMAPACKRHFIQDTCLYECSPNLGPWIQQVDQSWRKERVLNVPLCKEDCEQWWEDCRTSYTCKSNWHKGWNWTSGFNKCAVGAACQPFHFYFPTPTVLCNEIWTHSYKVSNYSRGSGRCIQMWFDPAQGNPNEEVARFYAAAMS

SMILES: C/C(=C\c1csc(C)n1)[C@@H]1CC2[C@@H](CCC[C@H](C)[C@H](O)[C@@H](C)C(=O)C(C)(C)[C@@H](O)CC(=O)O1)[N@@]2CCO (relative stereo) [Compound G, [1S-[1R*,3R*(E),7R*,10S*,11R*,12R*,16S*]]-7,11-Dihydroxy-17-[2-hydroxyethyl]-8,8,10,12-tetramethyl-3-[1-methyl-2-(2-methyl-4-thiazolyl)ethenyl]-4-oxa-17-azabicyclo[14.1.0]heptadecane-5,9-dione]
IC90, concentration needed to kill 90% of clonogenic KB cancer cells ([1]; drug exposure duration of 17 hours): 4.3 nM

SMILES: C/C(=C\c1csc(CN)n1)[C@@H]1CC2O[C@]2(C)CCC[C@H](C)[C@H](O)[C@@H](C)C(=O)C(C)(C)[C@@H](O)CC(=O)O1 (stereo partly drawn) [Compound AA]
fold by which compound G is more potent than the named compound (IC90) [1]: ~4 fold
IC50 ([2]; Homo sapiens, A2780, Mean IC50 ± SD from four separate experiments, MTS, 72 hour incubation): 1.1 ± 0.4 nM
IC50 [3, 11]: 1.2 ± 0.3 nM
R/S Ratio (HCT116) [4]: 14.8
R/S Ratio (A2780) [5]: 3
activity in Phase II clinical trials (Phase II clinical trials): has activity

SMILES: C/C(=C\c1csc(C)n1)C1C[C@@H]2N[C@@H]2CCC[C@H](C)[C@H](O)[C@@H](C)C(=O)C(C)(C)[C@@H](O)CC(=O)O1 (stereo partly drawn) [Compound CC]
fold by which compound G is more potent than the named compound (IC90) [1]: ~2 fold
IC50 ([2]; Homo sapiens, A2780, 72 h): 3.4 ± 1.5 nM
IC50 ([3]; Homo sapiens, HCT-116, 72 h): 4.2 ± 2.8 nM
R/S Ratio (HCT116) [4]: 3.1
R/S Ratio (A2780) [5]: 4.7

SMILES: C/C(=C\c1csc(C)n1)[C@@H]1C[C@H]2[C@@H](CCC[C@H](C)[C@H](O)[C@@H](C)C(=O)C(C)(C)[C@@H](O)CC(=O)O1)N2CCOC(=O)OCCSSC[C@H](NC(=O)[C@H](CC(=O)O)NC(=O)[C@H](CCCNC(=N)N)NC(=O)[C@H](CC(=O)O)NC(=O)CC[C@H](NC(=O)c1ccc(NCc2cnc3nc(N)[nH]c(=O)c3n2)cc1)C(=O)O)C(=O)O (stereo partly drawn) [Compound J]
MTD [6]: 2.4 µmol/kg
antitumor activity in FRα(−) M109 parent tumor model [7]: poor activity at all dose levels tested
effect of co-administered folate analog on antitumor effects (FRα(+) 98M109 tumors): protect FRα(+) 98M109 tumors from the antitumor effects of compound J
relative affinity (RA) for folate receptor [8]: 0.77
toxicity at the two dose levels below MTD ([9]; KB model): minimal toxicity
antitumor effects compared at the MTDs ([9]; versus ixabepilone): superior antitumor effects than ixabepilone

SMILES: C/C(=C\c1csc(C)n1)C1C[C@H]2[C@@H](CCC[C@H](C)[C@H](O)[C@@H](C)C(=O)C(C)(C)[C@@H](O)CC(=O)O1)N2C (stereo partly drawn) [DD]
IC50 ([2]; Homo sapiens, A2780, 72 h): 0.25 ± 0.06 nM
IC50 ([3]; Homo sapiens, HCT-116, 72 h): 0.37 ± 0.13 nM
R/S Ratio (HCT116) [4]: 0.6
R/S Ratio (A2780) [5]: 4.1

SMILES: C/C(=C\c1csc(C)n1)[C@@H]1C[C@@H]2O[C@]2(C)CCC[C@H](C)[C@H](O)[C@@H](C)C(=O)C(C)(C)[C@@H](O)CC(=O)O1 [Epothilone B]
IC50 [2, 12]: 0.23 ± 0.09 nM
IC50 [3, 12]: 0.4 ± 0.13 nM
R/S Ratio (HCT116) [4]: 0.5
R/S Ratio (A2780) [5]: 2.5

relative affinity (RA) for folate receptor [8]: 1.0
SMILES: Nc1nc2ncc(CNc3ccc(C(=O)N[C@@H](CCC(=O)O)C(=O)O)cc3)nc2c(=O)[nH]1 [folic acid]

SMILES: C/C(=C\c1csc(C)n1)[C@@H]1C[C@@H]2O[C@]2(C)CCC[C@H](C)[C@H](O)[C@@H](C)C(=O)C(C)(C)[C@@H](O)CC(=O)N1 [ixabepilone]
MTD [6]: 5 µmol/kg
antitumor activity in FRα(−) M109 parent tumor model [7]: active at its MTD
fold by which compound G is more potent than the named compound (IC90) [1]: ~6 fold
MTD [10]: 5 µmol/kg

IC50 [3, 11]: 3.3 ± 1 nM
SMILES: CC(=O)O[C@H]1C(=O)[C@@]2(C)[C@H]([C@H](OC(=O)c3ccccc3)[C@]3(O)C[C@H](OC(=O)[C@H](O)[C@@H](NC(=O)c4ccccc4)c4ccccc4)C(C)=C1C3(C)C)[C@]1(OC(C)=O)CO[C@@H]1C[C@@H]2O [paclitaxel]
R/S Ratio (A2780) [5]: 22.1
